For 12 compounds, TGI results are on record in PubChem BioAssay (NCI).

Experiment in all cases: inhibition of tumour cell growth, NCI panel, 48 h
Assay [1] deals with CCRF-CEM leukemia.
Assay [2] concerns KM12 colon.
The test system of assay [3] is COLO 205 colon.
The subject of assay [4] is SF-295 CNS.
The test system of assay [5] is RXF 393 renal.
In assay [6] the test system is EKVX NSCLC.
For assay [7], the system named is MDA-N.
Assay [8] relates to HCC-2998 colon.
In assay [9] the test system is SK-MEL-2 melanoma.
In assay [10] the test system is NCI-H522 lung.
Assay [11] has as its system DU-145 prostate.

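Method: 48-hour compound exposure of cells in 96-well plates, five concentrations, linear interpolation of endpoints. TGI is the concentration that stops growth completely.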 Bounds are passed on as bounds.

In the case of `CC(C)C(C/C=C1/CC(CO)(COC(=O)CC(C(C)C)C(C)C)OC1=O)C(C)C` (configuration not stated), the TGI in [1] was 29.9 µM; in assay [2] it was 21.6 µM; in [3] it was 3.33 µM; in assay [4], 16.5 µM; in [5], 26 µM; in [6], 19.4 µM. Further, the TGI in assay [7] is 29.6 µM; in assay [8], 13.3 µM; in [9], 30.1 µM; in [10] it was 26.5 µM; in assay [11], 26.3 µM.
With `COc1ccc2c3c1OC1C(=O)C=CC4(O)C(C2)NCC[C@@]314` (some centres not stated), the TGI is 2.76 µM in assay [1]; 8.59 µM in assay [2]; 3.02 µM in [3]; 14.9 µM in [4]; 3.74 µM in assay [5]; 7.95 µM in assay [6]. In addition, the TGI in [7] is 4.91 µM; in assay [8], 6.1 µM; in assay [9], 6.65 µM; in assay [10], 1.99 µM; in assay [11], 13.1 µM.
Regarding `CN1CCC2(CC1)C(=O)N(N1CCCCCC1)C(=O)N2c1ccccc1`, the TGI in [1], in [2], in assay [3], in assay [4], in [5] and in assay [6] was above 100 µM in each case. For the same compound, the TGI in [7], in assay [8], in assay [9], in assay [10] and in assay [11] was above 100 µM in each case.
As to `CC(=O)O[C@H]1C[C@]2(C)C(CCC3O[C@@]32C)[C@@]2(CC(c3ccoc3)OC2O)[C@@H]1C` (some centres not stated), the TGI in assay [1] was 88.3 µM; in assay [2] it was above 100 µM; in [3], above 100 µM; in [4], above 100 µM; in assay [5], above 100 µM; in assay [6], above 100 µM. The TGI in [7], in assay [8], in assay [9], in assay [10] and in assay [11] was above 100 µM each time.
As to `O=C1NC2(CCCCC2)N=C2C(Cl)CCCC12Cl` (configuration not stated), the TGI in [1], in [2], in assay [3], in assay [4], in assay [5] and in assay [6] was above 100 µM each time. Also, the TGI in assay [7], in [8], in assay [9], in [10] and in assay [11] was above 100 µM throughout.
As for `CCOc1ccccc1/C=C1\NC(=O)N(/C=C2\C(=O)Oc3ccccc3C2=O)C1=O`, the TGI in [1] was 59.1 µM; in [2] it was above 100 µM; in [3] it was above 100 µM; in assay [4] it was above 100 µM; in [5], above 100 µM; in [6], above 100 µM. For the same compound, the TGI in assay [7], in assay [8], in assay [9], in [10] and in assay [11] was above 100 µM each time.
With `c1ccc(N=C2SC(=NNc3ccccc3)SC2=Nc2ccccc2)cc1`, the TGI in assay [1], in [2], in [3], in assay [4], in assay [5] and in assay [6] was above 100 µM each time. Besides, the TGI in assay [7], in assay [8], in assay [9], in assay [10] and in [11] was above 100 µM each time.
In the case of `CN1C(c2ccccc2)=CC(=O)C(O)=C(c2ccccc2)S1(=O)=O`, the TGI in assay [1], in [2], in [3], in assay [4], in assay [5] and in assay [6] was above 100 µM throughout. Besides, the TGI in [7], in assay [8], in assay [9], in assay [10] and in [11] was above 100 µM throughout.
In the case of `COC(=O)CC1(CNC(=O)OCc2ccccc2)OCCO1`, the TGI in assay [1], in assay [2], in [3], in assay [4], in assay [5] and in assay [6] was above 100 µM in each case. Moreover, the TGI in [7], in [8], in assay [9], in assay [10] and in [11] was above 100 µM each time.
Take `O=C(Cn1nc(Br)c(Br)c1Br)c1ccccc1`: the TGI in assay [1] was 23 µM; in [2], above 100 µM; in [3] it was 36.9 µM; in [4], 91.5 µM; in assay [5] it was 36.4 µM; in assay [6], above 100 µM. Moreover, the TGI is above 100 µM in assay [7]; above 100 µM in [8]; 56.7 µM in assay [9]; 83.6 µM in assay [10]; above 100 µM in assay [11].
As for `N#Cc1[nH]c(=O)n(-c2ccc(Cl)cc2)c1N`, the TGI in assay [1], in [2], in assay [3], in [4], in assay [5] and in [6] was above 10 µM in each case. For the same compound, the TGI in assay [7], in assay [8], in [9], in assay [10] and in assay [11] was above 10 µM throughout.
Turning to `COC(=O)NCCc1[nH]nc2c1C(=O)C=C(Nc1ccccc1)C2=O`, the TGI was 51.1 µM in assay [1]; 62.2 µM in assay [2]; 37.5 µM in assay [3]; above 100 µM in [4]; above 100 µM in assay [5]; above 100 µM in [6]. Moreover, the TGI is 33.2 µM in assay [7]; above 100 µM in [8]; 99.4 µM in assay [9]; 28.6 µM in assay [10]; above 100 µM in assay [11].
